Reference: ChEMBL document CHEMBL4819019, “Design, synthesis, antibacterial activity and toxicity of novel quaternary ammonium compounds based on pyridoxine and fatty acids” (Eur J Med Chem, 2021)
Activity calls are given as the source filed them. The rule behind the calls is not given here.

How the values were obtained:
Staphylococcus aureus [1] = test: Antibiofilm activity against biofilm-embedded Staphylococcus aureus assessed as reduction in log CFU at 1 to 32 times of MBC measured after 24 hrs by drop plate assay; assay type: functional, organism-based
[2] = Cytotoxicity against human mesenchymal stem cells assessed as cell viability measured after 72 hrs by MTT assay; assay type: cell-based
[3] = Genotoxicity in Salmonella typhimurium TA100 assessed as number of revertant by Ames spot test relative to solvent control; assay type: toxicity; conditions: salmonella enterica subsp. enterica serovar typhimurium
Pseudomonas sp. = test: Antibacterial activity against clinical isolate Pseudomonas sp. 5 measured after 24 hrs by broth microdilution method; assay type: functional
Staphylococcus aureus [4] = test: Antibacterial activity against clinical isolate methicillin-resistant Staphylococcus aureus 713 measured after 24 hrs by broth microdilution method; assay type: functional
[5] = Genotoxicity in Salmonella typhimurium TA1535/pSK1002 assessed as DNA-damage activity by measuring beta-galactosidase activity at 750 ug/ml measured by SOS-chromotest relative to solvent control; assay type: toxicity; conditions: salmonella enterica subsp. enterica serovar typhimurium; dose 750 µg/ml
[6] = Genotoxicity in Salmonella typhimurium TA1537 assessed as number of revertant by Ames spot test relative to solvent control; assay type: toxicity; conditions: salmonella enterica subsp. enterica serovar typhimurium
[7] = tested on: Staphylococcus ureilyticus; test: Antibacterial activity against clinical isolate Staphylococcus ureilyticus 1972 measured after 24 hrs by broth microdilution method; assay type: functional
Escherichia coli [8] = test: Antibacterial activity against clinical isolate Escherichia coli 718 measured after 24 hrs by broth microdilution method; assay type: functional
[9] = Genotoxicity in Salmonella typhimurium TA1535 assessed as number of revertant by Ames spot test relative to solvent control; assay type: toxicity; conditions: salmonella enterica subsp. enterica serovar typhimurium
Enterococcus faecalis [10] = test: Antibacterial activity against clinical isolate Enterococcus faecalis 23 measured after 24 hrs by broth microdilution method; assay type: functional
[11] = Acute toxicity in C57BL/6CBA mouse assessed as pale kidneys at 2000 mg/kg, po after 7 days; assay type: organism-based; conditions: in vivo, 168 h, time 7 day
[12] = Cytotoxicity against human skin fibroblasts assessed as cell viability measured after 72 hrs by MTT assay; assay type: cell-based, Fibroblast
[13] = Acute toxicity in po dosed C57BL/6CBA mouse measured upto 7 days; assay type: organism-based; conditions: in vivo, time <=7 day
Bacillus subtilis = test: Antibacterial activity against Bacillus subtilis 168 measured after 24 hrs by broth microdilution method; assay type: functional
Cell membrane [14] = test: Induction of cell membrane damage in Escherichia coli assessed as decrease in flourescence measured for 35 mins with 5 min interval by DioC2(3) based flourescence method
Escherichia coli [15] = test: Antibacterial activity against Escherichia coli assessed as fold increase in MIC after 4 passages by serial dilution method; assay type: functional, organism-based; conditions: time 24.0 hrs
Staphylococcus aureus [16] = test: Antibacterial activity against clinical isolate methicillin-resistant Staphylococcus aureus 1131 measured after 24 hrs by broth microdilution method; assay type: functional
Staphylococcus aureus [17] = test: Antibacterial activity against clinical isolate methicillin-resistant Staphylococcus aureus 983 measured after 24 hrs by broth microdilution method; assay type: functional
[18] = Antibiofilm activity against biofilm-embedded Staphylococcus aureus/Escherichia coli assessed as reduction in viable cells upto 512 mg/L measured after 24 hrs by drop plate based dual species biofilm assay; assay type: functional, cell-based; conditions: dose mg/L <=512, time 24.0 hrs
Staphylococcus aureus [19] = test: Antibacterial activity against clinical isolate methicillin-resistant Staphylococcus aureus 1053 measured after 24 hrs by broth microdilution method; assay type: functional
[20] = Genotoxicity in Salmonella typhimurium TA98 assessed as number of revertant by Ames spot test relative to solvent control; assay type: toxicity; conditions: salmonella enterica subsp. enterica serovar typhimurium
Acinetobacter sp. = test: Antibacterial activity against clinical isolate Acinetobacter sp. 3 measured after 24 hrs by broth microdilution method; assay type: functional
Proteus sp. = test: Antibacterial activity against clinical isolate Proteus sp. 17 measured after 24 hrs by broth microdilution method; assay type: functional; conditions: Proteus sp. (in: enterobacteria)
[21] = Genotoxicity in Salmonella typhimurium TA1535/pSK1002 assessed as DNA-damage activity by measuring beta-galactosidase activity at 150 ug/ml measured by SOS-chromotest relative to solvent control; assay type: toxicity; conditions: salmonella enterica subsp. enterica serovar typhimurium; dose 150 µg/ml
[22] = Acute toxicity in C57BL/6CBA mouse assessed as necropsy measured at 2500 mg/kg treated as single topically measured after 14 days; assay type: organism-based; conditions: in vivo, topical_or_ocular, 336 h, time 14 day
Klebsiella sp. = test: Antibacterial activity against clinical isolate Klebsiella sp. 11 measured after 24 hrs by broth microdilution method; assay type: functional
Pseudomonas aeruginosa [23] = test: Antibacterial activity against clinical isolate Pseudomonas aeruginosa 1945 measured after 24 hrs by broth microdilution method; assay type: functional
Pseudomonas aeruginosa [24] = test: Antibacterial activity against Pseudomonas aeruginosa ATCC 27853 measured after 24 hrs by broth microdilution method; assay type: functional
Serratia marcescens = test: Antibacterial activity against clinical isolate Serratia marcescens 1966 measured after 24 hrs by broth microdilution method; assay type: functional
[25] = Antibiofilm activity against biofilm-embedded Staphylococcus aureus/Pseudomonas aeruginosa assessed as reduction in viable cells upto 512 mg/L measured after 24 hrs by drop plate based dual species biofilm assay; assay type: functional, cell-based; conditions: dose mg/L <=512, time 24.0 hrs
[26] = tested on: Staphylococcus intermedius; test: Antibacterial activity against clinical isolate methicillin-resistant Staphylococcus intermedius 1143 measured after 24 hrs by broth microdilution method; assay type: functional
Staphylococcus aureus [27] = test: Antibacterial activity against clinical isolate methicillin-resistant Staphylococcus aureus 1065 measured after 24 hrs by broth microdilution method; assay type: functional
[28] = Acute toxicity in C57BL/6CBA mouse assessed pale gastric mucosa at 2000 mg/kg, po after 7 days; assay type: organism-based; conditions: in vivo, 168 h, time 7 day
Klebsiella pneumoniae = test: Antibacterial activity against clinical isolate Klebsiella pneumoniae 1813 measured after 24 hrs by broth microdilution method; assay type: functional
[29] = Cytotoxicity against human HEK293 cells assessed as cell viability measured after 72 hrs by MTT assay; assay type: cell-based
[30] = Lipophilicity, logP of the compound; assay type: physicochemical; conditions: octanol/water
Micrococcus luteus [31] = test: Antibiofilm activity against biofilm-embedded Micrococcus luteus assessed as reduction in log CFU at 1 to 32 times of MBC measured after 24 hrs by drop plate assay; assay type: functional, organism-based
Escherichia coli [32] = test: Antibacterial activity against Escherichia coli MG 1655 measured after 24 hrs by broth microdilution method; assay type: functional
Escherichia coli [33] = test: Antibiofilm activity against biofilm-embedded Escherichia coli assessed as reduction in log CFU at 1 to 32 times of MBC measured after 24 hrs by drop plate assay; assay type: functional, organism-based
Staphylococcus aureus [34] = test: Antibacterial activity against Staphylococcus aureus ATCC 29213 measured after 24 hrs by broth microdilution method; assay type: functional
Moraxella = test: Antibacterial activity against clinical isolate Moraxella 765 measured after 24 hrs by broth microdilution method; assay type: functional
[35] = Genotoxicity in Salmonella typhimurium TA1535/pSK1002 assessed as DNA-damage activity by measuring beta-galactosidase activity at 7.5 ug/ml measured by SOS-chromotest relative to solvent control; assay type: toxicity; conditions: salmonella enterica subsp. enterica serovar typhimurium; dose 7.5 µg/ml
Pseudomonas aeruginosa [36] = test: Antibiofilm activity against biofilm-embedded Pseudomonas aeruginosa assessed as reduction in log CFU at 1 to 32 times of MBC measured after 24 hrs by drop plate assay; assay type: functional, organism-based
[37] = Genotoxicity in Salmonella typhimurium TA1535/pSK1002 assessed as DNA-damage activity by measuring beta-galactosidase activity at 15 ug/ml measured by SOS-chromotest relative to solvent control; assay type: toxicity; conditions: salmonella enterica subsp. enterica serovar typhimurium; dose 15 µg/ml
Enterococcus faecalis [38] = test: Antibacterial activity against clinical isolate Enterococcus faecalis 3063 measured after 24 hrs by broth microdilution method; assay type: functional
Cell membrane [39] = test: Induction of cell membrane damage in Staphylococcus aureus assessed as decrease in flourescence measured for 35 mins with 5 min interval by DioC2(3) based flourescence method
[40] = tested on: Staphylococcus intermedius; test: Antibacterial activity against clinical isolate methicillin-resistant Staphylococcus intermedius 1061 measured after 24 hrs by broth microdilution method; assay type: functional
Micrococcus luteus [41] = test: Antibacterial activity against Micrococcus luteus clinical isolate measured after 24 hrs by broth microdilution method; assay type: functional
[42] = Acute toxicity in topically treated C57BL/6CBA mouse measured upto 14 days; conditions: in vivo, topical or ocular, time <=14 day
Staphylococcus aureus [43] = test: Antibacterial activity against Staphylococcus aureus assessed as fold increase in MIC after 8 passages by serial dilution method; assay type: functional, organism-based; conditions: time 24.0 hrs
[44] = Genotoxicity in Salmonella typhimurium TA1535/pSK1002 assessed as DNA-damage activity by measuring beta-galactosidase activity at 75 ug/ml measured by SOS-chromotest relative to solvent control; assay type: toxicity; conditions: salmonella enterica subsp. enterica serovar typhimurium; dose 75 µg/ml
[45] = Acute toxicity in topically treated C57BL/6CBA mouse assessed as death measured at 2500 mg/kg treated as single topically measured after 14 days; assay type: organism-based; conditions: in vivo, topical_or_ocular, 336 h, time 14 day
Staphylococcus aureus [46] = test: Antibacterial activity against clinical isolate Staphylococcus aureus 25 measured after 24 hrs by broth microdilution method; assay type: functional

With `CCCCCCCCCCCCCC(=O)NCC[N+](C)(C)Cc1nc(C)c2c(c1CO)COC(C)(C)O2.[Cl-]` the Activity (Staphylococcus aureus [1]) was “Active”, the CC50 at 72 h [2] was 1.74 µg/mL and the Ratio [3] was 1.7. It also gave an MIC (Pseudomonas sp.) of 32 µg/mL, an MIC (Staphylococcus aureus [4]) of 4 µg/mL and a Ratio [5] of 0.4. The Ratio [6] was 0.01, the MIC [7] was > 64 µg/mL and the MIC (Escherichia coli [8]) was 16 µg/mL. The Ratio [9] was 1.1, the MIC (Enterococcus faecalis [10]) was 1 µg/mL and the Activity [11] was “Toxic”. For the same molecule, the CC50 at 72 h [12] was 3.21 µg/mL, the LD50 at 168 h [13] was > 2000 mg/kg and the MIC (Bacillus subtilis) was 1 µg/mL. The Activity (Cell membrane [14]) was “Dose-Dependent Effect”, the MIC (Escherichia coli [15]) was “Active” and the MIC (Staphylococcus aureus [16]) was 4 µg/mL. The MIC (Staphylococcus aureus [17]) was 32 µg/mL, the Activity [18] was “inactive” and the MIC (Staphylococcus aureus [19]) was 4 µg/mL. The Ratio [20] was 1.9, the MIC (Acinetobacter sp.) was 32 µg/mL and the MIC (Proteus sp.) was > 64 µg/mL. The Ratio [21] was 0.7, the Activity [22] was “Non-Toxic” and the MIC (Klebsiella sp.) was 32 µg/mL. The MIC (Pseudomonas aeruginosa [23]) was 32 µg/mL, the MIC (Pseudomonas aeruginosa [24]) was > 64 µg/mL and the MIC (Serratia marcescens) was > 64 µg/mL. The Activity [25] was “inactive”, the MIC [26] was 4 µg/mL and the MIC (Staphylococcus aureus [27]) was 2 µg/mL. The Activity [28] was “Toxic”, the MIC (Klebsiella pneumoniae) was 2 µg/mL and the CC50 at 72 h [29] was 1.32 µg/mL. For the same molecule, the logP [30] was 0.73, the Activity (Micrococcus luteus [31]) was “Active” and the MIC (Escherichia coli [32]) was 8 µg/mL. The Activity (Escherichia coli [33]) was “Active”, the MIC (Staphylococcus aureus [34]) was 1 µg/mL and the MIC (Moraxella) was 64 µg/mL. The Ratio [35] was 1.6, the Activity (Pseudomonas aeruginosa [36]) was “Active” and the Ratio [37] was 1.8. The MIC (Enterococcus faecalis [38]) was 1 µg/mL, the Activity (Cell membrane [39]) was “Dose-Dependent Effect” and the MIC [40] was 4 µg/mL. The MIC (Micrococcus luteus [41]) was 2 µg/mL, the LD50 at 336 h [42] was > 2500 mg/kg and the MIC (Staphylococcus aureus [43]) was “Active”. The Ratio [44] was 0.7, the Activity [45] was “Non-Toxic” and the MIC (Staphylococcus aureus [46]) was 2 µg/mL.
